Measured values reported in patent publication US20130252930A1 (BIOMARIN PHARMACEUTICAL INC., priority 2010, published 2013).
Like-named read-outs stand apart in the source and are kept apart here.

Experiments:
[1] = Human liver microsome stability assay (Biological Example 8b); conditions: liver microsomes, pH 7.4
Method: The reaction was started with addition of excess NADPH (5 mg/mL, 15 μL in 0.1 M potassium phosphate buffer, 1.0 mM EDTA, pH 7.4), the total volume is 45 μL (compound final concentration was 1 μM). […] 50 μL of the supernatant was transferred from each well into a 96-well sample plate containing 50 μL of ultra-pure water (Millipore) for LC-MS/MS analysis.

[2] = target: T1, CYP17 (human testicular microsome) (Homo sapiens, UniProt P05093); assay: CYP17 enzymatic assay (% inhibition at 1 nM) (Biological Example 12); format: biochemical; conditions: compound at 1 nM, read-out: CYP17 enzymatic assay % inhibition at 1 nM (Biological Example No. 12)
T1 construct: using microsomal fraction from human testis (Celsis Cat #S00110) as the enzyme source; tissue Celsis S00110; host or cells: human testis microsomal fraction
T1 sequence (P05093 1-508): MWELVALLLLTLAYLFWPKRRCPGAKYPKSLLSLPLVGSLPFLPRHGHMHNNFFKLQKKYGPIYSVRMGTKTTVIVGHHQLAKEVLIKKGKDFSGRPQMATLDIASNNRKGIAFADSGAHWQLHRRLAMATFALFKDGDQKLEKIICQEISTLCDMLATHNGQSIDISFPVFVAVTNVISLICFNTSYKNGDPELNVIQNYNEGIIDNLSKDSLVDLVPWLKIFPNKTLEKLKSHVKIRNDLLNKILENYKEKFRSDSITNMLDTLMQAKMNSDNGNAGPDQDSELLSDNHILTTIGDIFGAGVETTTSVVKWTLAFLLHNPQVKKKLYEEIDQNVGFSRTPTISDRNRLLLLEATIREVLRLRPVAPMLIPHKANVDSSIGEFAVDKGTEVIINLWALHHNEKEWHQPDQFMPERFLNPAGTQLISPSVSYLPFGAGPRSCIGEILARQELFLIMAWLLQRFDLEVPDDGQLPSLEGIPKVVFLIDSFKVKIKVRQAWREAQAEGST

[3] = target: T2, Cyp21 enzyme (Human HEK 293-Cyp21 stable transfected cells) (Homo sapiens, UniProt P08686); assay: CYP21-HEK293 enzymatic assay (% inhibition at 100 nM) (Biological Example 10); format: cell-based; conditions: HEK 293-Cyp21 cells
T2 construct: expressed in transfected cells
T2 sequence (P08686 1-495): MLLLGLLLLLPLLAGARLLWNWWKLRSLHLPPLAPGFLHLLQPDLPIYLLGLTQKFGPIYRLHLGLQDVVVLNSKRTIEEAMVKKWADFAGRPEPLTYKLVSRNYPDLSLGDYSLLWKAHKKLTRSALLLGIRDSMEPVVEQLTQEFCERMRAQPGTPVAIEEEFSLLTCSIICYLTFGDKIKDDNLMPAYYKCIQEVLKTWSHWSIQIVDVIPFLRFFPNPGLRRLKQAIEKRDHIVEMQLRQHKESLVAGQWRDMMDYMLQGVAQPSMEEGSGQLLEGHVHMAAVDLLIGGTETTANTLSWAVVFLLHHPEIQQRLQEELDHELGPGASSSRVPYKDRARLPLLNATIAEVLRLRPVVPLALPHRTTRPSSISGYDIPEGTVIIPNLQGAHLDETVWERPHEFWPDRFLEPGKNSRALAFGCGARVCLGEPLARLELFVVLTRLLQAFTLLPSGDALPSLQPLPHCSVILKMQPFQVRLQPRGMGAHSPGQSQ
Procedure, shortened: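 HEK293 cells stably expressing human Cyp21 in DMEM + 10% FBS got compound (100 nM reported) for 5 h at 37 °C; 1% methanol served as mock. Progesterone substrate (final 10 μM) was then added for 20 h. DOC in the medium was measured by competitive ELISA (OD 450 nm) against a standard curve.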

[4] = target: T1, CYP17 (human testicular microsome); assay: CYP17 enzymatic assay (% inhibition at 10 nM), version 1 (Biological Example 5); format: biochemical; conditions: 10 nM compound, DHEA by ELISA, read-out: Biological Example No. 5: CYP17 percent inhibition at 10 nM (version 1)
Method: The assays were performed in 96-well plates. Typical assays were carried out in total 100 μL volume that included test compounds at 10 nM concentration, 1× reaction buffer, 0.5 mM NADPH, 1 μM 17α-hydroxypregnenolone, and 2.5 μL of diluted human testicular microsome (Celsis. Cat #S00110). Reaction without test compound served as positive control. Reactions were allowed to incubate at 37° C. for 90 minutes with gentle shaking. The reaction was stopped by directly applying the enzymatic reaction mixture to ELISA plate for evaluation of DHEA concentration according to manufacturer's protocol (IBL America). A standard curve (OD450 vs. DHEA concentration) was generated using purified DHEA. […] Percent inhibition (inhibition %) of the compound was calculated using normalized DHEA concentration based on following formula: 100-([DHEA] of compound/[DHEA] of positive control *100).

[5] = Rat liver microsome stability assay (Biological Example 8a); conditions: liver microsomes, pH 7.4
Method: Each test compound (1.5 μM, 30 μL) was incubated with rat (BD Gentest, Cat No. 452501) or human (BD Gentest, Cat No. 452161) liver microsomes (0.75 mg/mL, 0.1 M potassium phosphate buffer, 1.0 mM EDTA, pH 7.4) in 96 well plates. The reaction was started with addition of excess NADPH (5 mg/mL, 15 μL in 0.1 M potassium phosphate buffer, 1.0 mM EDTA, pH 7.4), the total volume is 45 μL (compound final concentration was 1 μM). The incubations were terminated at time zero and at 5, 15, 30, and 60 minutes by addition of 135 μL/excess ACN containing internal standard (1S). After quenching, the reaction mixtures was centrifuged (Eppendorf Centrifuge 5810R) at 3220×g for 10 min (4° C.). 50 μL of the supernatant was transferred from each well into a 96-well sample plate containing 50 μL of ultra-pure water (Millipore) for LC-MS/MS analysis. The half-life T1/2=0.693/K (K is the rate constant from a plot of log [concentration] vs. incubation time) was calculated.

[6] = 100 nM compound, read-out: Biological Example No. 10: CYP21-HEK293 percent inhibition at 100 nM

For CC(=O)NC1CC[C@@]2(C)C(=CCC3C2CC[C@]2(C)C(n4ccnc4)=CCC32)C1 (stereo partly drawn) [Compound 237, N-((10R,13S)-17-(1H-imidazol-1-yl)-10,13-dimethyl-2,3,4,7,8,9,10,11,12,13,14,15-dodecahydro-1H-cyclopenta[a]phenanthren-3-yl)acetamide], the half-life at 1 μM [1] was over 50 min, the inhibition at 0.001 µM [2] was over 50% and the inhibition at 0.1 µM ([3]; compound at 100 nM, read-out: CYP21-HEK293 enzymatic assay % inhibition at 100 nM (Biological Example No. 10)) was under 30%.
Molecule C[C@]12CC[C@H]3[C@@H](CC=C4C[C@@H](O)CC[C@@]43C)C1=CC=C2c1cccnc1 [Compound 79, (3S,10R,13S)-10,13-dimethyl-17-(pyridin-3-yl)-2,3,4,7,8,9,10,11,12,13-decahydro-1H-cyclopenta[a]phenanthren-3-ol] has an inhibition at 0.01 µM [4] of 50 to 80%, a half-life at 1 μM [1] of 1 to 50 min and an inhibition at 0.1 µM [3, 6] of under 30%. The half-life at 1 μM [5] was 10 to 60 min.
With C[C@]12CC(O)C[C@@H]1CC[C@@H]1[C@@H]2CC[C@]2(C)C(n3ccnc3)=CC[C@@H]12 (stereo partly drawn) [Compound 109, (3aS,5aS)-6-(1H-imidazol-1-yl)-3a,5a-dimethyl-1,2,3,3a,3b,4,5,5a,8,8a,8b,9,10,10a-tetradecahydrodicyclopenta[a,f]naphthalen-2-ol] the inhibition at 0.01 µM [4] was over 80%, the inhibition at 0.1 µM [3, 6] was at least 30% and the half-life at 1 μM [5] was 10 to 60 min.
